From PubChem BioAssay (NCI) come the findings set out here.

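1) Cells in 96-well plates. 2) Compound, 48 h, 5 concentrations. 3) Linear interpolation between surrounding doses. 4) Unreached endpoint = highest concentration. TGI denotes the concentration required for complete inhibition of growth.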 Bounds are passed on as bounds.

Experiment in all cases: NCI-60 cell line screen, 48 h
Experiment [1] has as its system NCI-H226 lung.
The test system of experiment [2] is IGROV1 ovarian.
For experiment [3], the system named is HCT-116 colon.
Experiment [4] relates to RXF 393 renal.
Experiment [5] concerns MDA-MB-435.
Experiment [6] has as its system UACC-62 melanoma.
For experiment [7], the system named is PC-3 prostate.
The test system of experiment [8] is K-562 leukemia.
Experiment [9] has as its system SK-MEL-28 melanoma.
Experiment [10] concerns NCI/ADR-RES ovarian.
Experiment [11] has as its system MALME-3M melanoma.
The subject of experiment [12] is OVCAR-4 ovarian.
The test system of experiment [13] is TK-10 renal.
The subject of experiment [14] is SR leukemia.
Experiment [15] concerns MCF7 breast.
In experiment [16] the test system is SK-MEL-2 melanoma.
Experiment [17] concerns HCT-15 colon.
The subject of experiment [18] is OVCAR-3 ovarian.
For experiment [19], the system named is MOLT-4 leukemia.

For `Cn1c(-c2cccc([N+](=O)[O-])c2)[n+](C)c2ccccc21`, the TGI in [1], in experiment [2], in experiment [3], in [4], in experiment [5] and in [6] was over 100 µM throughout. Also, the TGI in [7], in experiment [8], in experiment [9], in [10], in [11] and in [12] was over 100 µM throughout. For the same compound, the TGI in [13], in [14], in [15], in [16], in experiment [17] and in experiment [18] was over 100 µM in each case. The compound also had a TGI in experiment [19] of over 100 µM.

As for `Cc1ccc(NC(=O)c2cc(S(=O)(=O)Nc3nc4ncccc4[nH]3)c(SSc3cc(Cl)c(C(=O)Nc4ccc(C)cc4)cc3S(=O)(=O)Nc3nc4ncccc4[nH]3)cc2Cl)cc1`, the TGI in [1], in experiment [2], in experiment [3], in experiment [4], in experiment [5] and in [6] was over 100 µM throughout. In addition, the TGI in [7], in experiment [8], in experiment [9], in experiment [10], in experiment [11] and in [12] was over 100 µM throughout. The TGI in experiment [13], in [14], in experiment [15], in [16], in [17] and in [18] was over 100 µM throughout. This compound also showed a TGI in experiment [19] of over 100 µM.

Take `O=[N+]([O-])c1cc(-c2nc(-c3ccccc3)c(-c3ccccc3)[nH]2)c(O)c([N+](=O)[O-])c1`: the TGI was 40.7 µM in experiment [1]; over 100 µM in [2]; 33.4 µM in experiment [3]; 44.8 µM in [4]; 95.3 µM in experiment [5]; 33.8 µM in [6]. Moreover, the TGI in experiment [7] is 44.3 µM; in experiment [8], over 100 µM; in experiment [9] it was over 100 µM; in [10], 56.7 µM; in experiment [11], 52 µM; in experiment [12], over 100 µM. For the same compound, the TGI in experiment [13] was 65.8 µM; in experiment [14] it was 58.7 µM; in experiment [15], 72.9 µM; in experiment [16], 38.3 µM; in [17], 33.6 µM; in experiment [18], over 100 µM. This compound also came in with a TGI in [19] of 61.7 µM.

As to `CCOC(=O)c1c(N2CCOCC2)[nH]c(=O)c(C(c2ccco2)c2c(O)c(C(=O)OCC)c(N3CCOCC3)[nH]c2=O)c1O`, the TGI in [1], in experiment [3], in experiment [4], in [5], in [6] and in experiment [7] was over 100 µM throughout. The TGI in [8], in [9], in experiment [10], in experiment [11], in experiment [12] and in experiment [13] was over 100 µM in each case. For the same compound, the TGI in [14], in [15], in experiment [16], in experiment [17], in [18] and in [19] was over 100 µM throughout.

In the case of `N#C/C(N)=C(\C#N)NC(=O)C(=O)N/C(C#N)=C(\N)C#N`, the TGI in [1], in experiment [2], in experiment [3], in [4], in experiment [5] and in experiment [6] was over 100 µM in each case. In addition, the TGI in [7], in [8], in experiment [9], in [10], in experiment [11] and in experiment [12] was over 100 µM each time. In addition, the TGI in experiment [13], in experiment [14], in [15], in [16], in experiment [17] and in [18] was over 100 µM throughout. Besides, the TGI in experiment [19] is over 100 µM.

Turning to `CC(C(O)c1ccccc1)C(O)(C(F)(F)F)C(F)(F)F` (configuration not stated), the TGI in experiment [1], in experiment [2], in [3], in experiment [4], in experiment [5] and in [6] was over 100 µM in each case. For the same compound, the TGI in experiment [7], in [8], in experiment [9], in [10], in experiment [11] and in experiment [12] was over 100 µM throughout. Besides, the TGI in experiment [13], in [14], in [15], in experiment [16], in [17] and in experiment [18] was over 100 µM throughout. In experiment [19], the TGI was over 100 µM.

For the compound `CCCCCCCCCCNC(=O)CCC(NC(=O)c1ccc(N(C)Cc2cnc3nc(N)nc(N)c3n2)cc1)C(=O)NCCCCCCCCCC` (configuration not stated), the TGI in experiment [1] worked out at 59.3 µM; in [2], 20.1 µM; in experiment [3], 14 µM; in experiment [4] it was 19.3 µM; in experiment [5] it was 15.4 µM; in [6], 49.5 µM. Further, the TGI in experiment [7] was 37.8 µM; in [8], over 32.2 µM; in experiment [9], 23.6 µM; in experiment [10], over 100 µM; in experiment [11], 37.7 µM; in [12] it was over 45.4 µM. Besides, the TGI is over 92.7 µM in experiment [13]; over 24.5 µM in experiment [14]; 15.3 µM in [15]; 30.4 µM in experiment [16]; over 100 µM in [17]; 26.8 µM in experiment [18]. This compound yielded a TGI in [19] of 30.5 µM.
